Reference: patent publication US9980943B2, “Methods of treating muscular dystrophy” (BOARD OF REGENTS OF THE NEVADA SYSTEM OF HIGHER EDUCATION, …, priority 2013, dated 2018)

Key:
Assay type in all cases: cell-based, mouse
[1] = system: β-galactosidase in CMV-LacZ C2C12 myotubes; experiment: CMV-LacZ secondary screen in C2C12 myotubes (β-Gal stabilizing assay); conditions: C2C12 CMV-LacZ myotubes, fold relative to DMSO
How it was run: (§1)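 First, C2C12 myoblasts were transfected with a linearized CMV-LACZ vector and clonal lines selected by FDG β-gal assay. Then cells were exposed to compounds at 0.5, 1, 5, 10, 20 and 40 μM in 96-well format, two replicates each, and β-gal measured.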

[2] = system: α7 integrin (LacZ reporter in α7+/LacZ myotubes); experiment: Myotube α7 integrin FDG assay (Burkin assay in myotubes, 96-well); conditions: myotubes
[3] = system: α7 integrin (LacZ reporter in α7βgal+/− myoblasts); experiment: Myoblast α7+/LacZ integrin FDG assay (Burkin assay in myoblasts, 96-well); conditions: α7+/LacZ myoblasts, 96-well
[4] = system: β-galactosidase in CMV-LacZ C2C12 myoblasts; experiment: CMV-LacZ secondary screen in C2C12 myoblasts (β-Gal stabilizing assay); conditions: CMV-LacZ C2C12 myoblasts
How it was run: as §1

Cc1cc(OCC(=O)NC(C)C)ccc1Cl [MLS000684034-01] was tested. Which “CMV-LACZ in Myotubes, signal relative to DMSO” value ([1]; 0.5 uM) did it give?
Its value is 1.0962.

And the “CMV-LACZ in Myotubes, signal relative to DMSO” value ([1]; 1 uM)?
Its value is 0.9810.

What about the “CMV-LACZ in Myotubes, signal relative to DMSO” value ([1]; 5 uM) of the same molecule?
Its value is 1.1407.

What about the “CMV-LACZ in Myotubes, signal relative to DMSO” value ([1]; 10 uM) of the same molecule?
Its value is 1.1903.

And the “CMV-LACZ in Myotubes, signal relative to DMSO” value ([1]; 20 uM)?
Its value is 1.2347.

And the “CMV-LACZ in Myotubes, signal relative to DMSO” value ([1]; 40 uM)?
Its value is 1.0105.

And the “Burkin Assay in Myotubes, α7 integrin LacZ reporter signal relative to DMSO” value ([2]; 0.5 uM)?
Its value is 0.9731.

And the “Burkin Assay in Myotubes, α7 integrin LacZ reporter signal relative to DMSO” value ([2]; 1 uM)?
The value was 0.9536.

And the “Burkin Assay in Myotubes, α7 integrin LacZ reporter signal relative to DMSO” value ([2]; 5 uM)?
Its value is 0.8383.

What about the “Burkin Assay in Myotubes, α7 integrin LacZ reporter signal relative to DMSO” value ([2]; 10 uM) of the same molecule?
The value was 0.8076.

What about the “Burkin Assay in Myotubes, α7 integrin LacZ reporter signal relative to DMSO” value ([2]; 20 uM) of the same molecule?
Its value is 0.7403.

What about the “Burkin Assay in Myotubes, α7 integrin LacZ reporter signal relative to DMSO” value ([2]; 40 uM) of the same molecule?
Its value is 0.7385.

What about the “Burkin Assay in Myoblasts, signal relative to DMSO” value ([3]; 0.5 uM) of the same molecule?
Its value is 0.999.

And the “Burkin Assay in Myoblasts, signal relative to DMSO” value ([3]; 1 uM)?
The value was 1.02.

And the “Burkin Assay in Myoblasts, signal relative to DMSO” value ([3]; 5 uM)?
The value was 0.7872.

What about the “Burkin Assay in Myoblasts, signal relative to DMSO” value ([3]; 10 uM) of the same molecule?
Its value is 0.6258.

And the “Burkin Assay in Myoblasts, signal relative to DMSO” value ([3]; 20 uM)?
The value was 0.4225.

What about the “Burkin Assay in Myoblasts, signal relative to DMSO” value ([3]; 40 uM) of the same molecule?
The value was 0.3085.

And the “CMV-LACZ in Myoblasts (β-galactosidase activity relative to DMSO)” value ([4]; 0.5 uM)?
Its value is 1.2525.

And the “CMV-LACZ in Myoblasts (β-galactosidase activity relative to DMSO)” value ([4]; 1 uM)?
Its value is 1.1492.

And the “CMV-LACZ in Myoblasts (β-galactosidase activity relative to DMSO)” value ([4]; 5 uM)?
Its value is 1.2045.

And the “CMV-LACZ in Myoblasts (β-galactosidase activity relative to DMSO)” value ([4]; 10 uM)?
The value was 1.0568.

What about the “CMV-LACZ in Myoblasts (β-galactosidase activity relative to DMSO)” value ([4]; 20 uM) of the same molecule?
Its value is 0.5374.

And the “CMV-LACZ in Myoblasts (β-galactosidase activity relative to DMSO)” value ([4]; 40 uM)?
The value was 0.3100.

CCc1nc2ccccc2c(C(=O)NCc2ccccc2)c1C [MLS000688267-01] was tested. Which “CMV-LACZ in Myotubes, signal relative to DMSO” value ([1]; 0.5 uM) did it give?
The value was 0.8648.

What about the “CMV-LACZ in Myotubes, signal relative to DMSO” value ([1]; 1 uM) of the same molecule?
The value was 1.1333.

And the “CMV-LACZ in Myotubes, signal relative to DMSO” value ([1]; 5 uM)?
The value was 0.9634.

And the “CMV-LACZ in Myotubes, signal relative to DMSO” value ([1]; 10 uM)?
The value was 1.2248.

And the “CMV-LACZ in Myotubes, signal relative to DMSO” value ([1]; 20 uM)?
Its value is 0.9505.

What about the “CMV-LACZ in Myotubes, signal relative to DMSO” value ([1]; 40 uM) of the same molecule?
Its value is 1.1505.

And the “Burkin Assay in Myotubes, α7 integrin LacZ reporter signal relative to DMSO” value ([2]; 0.5 uM)?
The value was 0.9011.

And the “Burkin Assay in Myotubes, α7 integrin LacZ reporter signal relative to DMSO” value ([2]; 1 uM)?
Its value is 0.8373.

And the “Burkin Assay in Myotubes, α7 integrin LacZ reporter signal relative to DMSO” value ([2]; 5 uM)?
Its value is 1.132.

And the “Burkin Assay in Myotubes, α7 integrin LacZ reporter signal relative to DMSO” value ([2]; 10 uM)?
The value was 1.101.

What about the “Burkin Assay in Myotubes, α7 integrin LacZ reporter signal relative to DMSO” value ([2]; 20 uM) of the same molecule?
Its value is 0.8808.

What about the “Burkin Assay in Myotubes, α7 integrin LacZ reporter signal relative to DMSO” value ([2]; 40 uM) of the same molecule?
Its value is 1.131.

What about the “Burkin Assay in Myoblasts, signal relative to DMSO” value ([3]; 0.5 uM) of the same molecule?
Its value is 1.092.

What about the “Burkin Assay in Myoblasts, signal relative to DMSO” value ([3]; 1 uM) of the same molecule?
Its value is 1.104.

And the “Burkin Assay in Myoblasts, signal relative to DMSO” value ([3]; 5 uM)?
The value was 1.358.

What about the “Burkin Assay in Myoblasts, signal relative to DMSO” value ([3]; 10 uM) of the same molecule?
Its value is 0.9133.

And the “Burkin Assay in Myoblasts, signal relative to DMSO” value ([3]; 20 uM)?
The value was 1.0466.

What about the “Burkin Assay in Myoblasts, signal relative to DMSO” value ([3]; 40 uM) of the same molecule?
Its value is 1.107.

And the “CMV-LACZ in Myoblasts (β-galactosidase activity relative to DMSO)” value ([4]; 0.5 uM)?
Its value is 1.0950.

What about the “CMV-LACZ in Myoblasts (β-galactosidase activity relative to DMSO)” value ([4]; 1 uM) of the same molecule?
The value was 1.1579.

And the “CMV-LACZ in Myoblasts (β-galactosidase activity relative to DMSO)” value ([4]; 5 uM)?
The value was 0.9129.

And the “CMV-LACZ in Myoblasts (β-galactosidase activity relative to DMSO)” value ([4]; 10 uM)?
The value was 0.8935.

What about the “CMV-LACZ in Myoblasts (β-galactosidase activity relative to DMSO)” value ([4]; 20 uM) of the same molecule?
Its value is 1.1407.

And the “CMV-LACZ in Myoblasts (β-galactosidase activity relative to DMSO)” value ([4]; 40 uM)?
The value was 1.0774.

N#C/C(=C/c1ccc(N2CCOCC2)o1)C(=O)Nc1ccccc1 [MLS000689218-01] was tested. Which “CMV-LACZ in Myotubes, signal relative to DMSO” value ([1]; 0.5 uM) did it give?
The value was 0.9657.

What about the “CMV-LACZ in Myotubes, signal relative to DMSO” value ([1]; 1 uM) of the same molecule?
The value was 0.9514.

What about the “CMV-LACZ in Myotubes, signal relative to DMSO” value ([1]; 5 uM) of the same molecule?
The value was 1.3684.

What about the “CMV-LACZ in Myotubes, signal relative to DMSO” value ([1]; 10 uM) of the same molecule?
The value was 1.2135.

What about the “CMV-LACZ in Myotubes, signal relative to DMSO” value ([1]; 20 uM) of the same molecule?
Its value is 1.4900.

What about the “CMV-LACZ in Myotubes, signal relative to DMSO” value ([1]; 40 uM) of the same molecule?
The value was 1.7990.

What about the “Burkin Assay in Myotubes, α7 integrin LacZ reporter signal relative to DMSO” value ([2]; 0.5 uM) of the same molecule?
The value was 0.9663.

What about the “Burkin Assay in Myotubes, α7 integrin LacZ reporter signal relative to DMSO” value ([2]; 1 uM) of the same molecule?
Its value is 1.083.

What about the “Burkin Assay in Myotubes, α7 integrin LacZ reporter signal relative to DMSO” value ([2]; 5 uM) of the same molecule?
The value was 0.97.

And the “Burkin Assay in Myotubes, α7 integrin LacZ reporter signal relative to DMSO” value ([2]; 10 uM)?
Its value is 0.9829.

And the “Burkin Assay in Myotubes, α7 integrin LacZ reporter signal relative to DMSO” value ([2]; 20 uM)?
The value was 1.008.

What about the “Burkin Assay in Myotubes, α7 integrin LacZ reporter signal relative to DMSO” value ([2]; 40 uM) of the same molecule?
Its value is 0.9676.

And the “Burkin Assay in Myoblasts, signal relative to DMSO” value ([3]; 0.5 uM)?
Its value is 1.068.

And the “Burkin Assay in Myoblasts, signal relative to DMSO” value ([3]; 1 uM)?
The value was 1.171.

What about the “Burkin Assay in Myoblasts, signal relative to DMSO” value ([3]; 5 uM) of the same molecule?
The value was 1.132.

And the “Burkin Assay in Myoblasts, signal relative to DMSO” value ([3]; 10 uM)?
Its value is 1.051.

And the “Burkin Assay in Myoblasts, signal relative to DMSO” value ([3]; 20 uM)?
Its value is 1.07.

And the “Burkin Assay in Myoblasts, signal relative to DMSO” value ([3]; 40 uM)?
The value was 1.037.

What about the “CMV-LACZ in Myoblasts (β-galactosidase activity relative to DMSO)” value ([4]; 0.5 uM) of the same molecule?
The value was 1.1977.

And the “CMV-LACZ in Myoblasts (β-galactosidase activity relative to DMSO)” value ([4]; 1 uM)?
The value was 1.2273.

And the “CMV-LACZ in Myoblasts (β-galactosidase activity relative to DMSO)” value ([4]; 5 uM)?
The value was 0.8689.

And the “CMV-LACZ in Myoblasts (β-galactosidase activity relative to DMSO)” value ([4]; 10 uM)?
The value was 1.0813.

What about the “CMV-LACZ in Myoblasts (β-galactosidase activity relative to DMSO)” value ([4]; 20 uM) of the same molecule?
Its value is 1.2835.

What about the “CMV-LACZ in Myoblasts (β-galactosidase activity relative to DMSO)” value ([4]; 40 uM) of the same molecule?
The value was 1.6337.
